In one assay the test system is DBA/2J mice. Briefly: Audiogenic seizure-sensitive mouse model of generalized convulsive seizures (AGS). Type of assay: in vivo. As to conditions: challenge 1 h, 90% MC 0.5% + 10% PEG400, read-out: Seizure stage [% vs. vehicle]. The protocol:
Formulation and Administration.
Compounds were formulated in a 10% polyethylene glycol 400 (PEG 400)/90% aqueous solution of 0.5% methylcellulose (MC 0.5%). Firstly drugs are dissolved in PEG 400 and then suspended in MC 0.5% for oral gavage at X mg/5 mL/kg (X see table).
Audiogenic Seizure-Sensitive Mouse Model of Generalized Convulsive Seizures
1. Procedure: Following two days of acclimatisation, auditory seizures are induced in male juvenile DBA/2J mice (22-24 days old). Each mouse is placed individually in the exposure chamber, an hemispheric acrylic glass dome (diameter: 50 cm) within a sound-attenuated box. The sound-attenuated box is equipped with two house lights and a camera system (Fire-I from Unibrain) in order to observe and record the behavioral seizure response. After 60 seconds of habituation, the stimulus, a mixed frequency tone of 15-20 kHz at 110 dB (SASLab Lite, Avisoft Bioacoustics), is played from a speaker that is placed on the top center of the dome. […] Seizures are classified as following: stage 0, normal behavior; stage 1, wild running; stage 2, generalized clonus; stage 3, tonic extension of the hind limbs.
2. Compounds testing: Acute compound effects on audiogenic generalized convulsive seizures are evaluated in independent groups of 8-10 mice randomly assigned. Following oral administration of compound or vehicle, the maximum seizure stage during sound exposure is assessed. Compounds are given 1 hour before exposure to the stimulus. Each mouse is exposed to the auditory stimulus only once and euthanized afterwards by CO2 inhalation.

The subject of assay [1] is primary neuronal cultures from embryonic rat brains. Briefly: Rat oscillation assay (FLIPR, neuronal calcium oscillations). The settings on record: Rattus norvegicus. Type of assay: cell-based. The essentials:
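Cortical neurons from E18 Wistar rat embryos, cultured 8–10 days at high density, loaded with 1 μM Fluo-8 AM; calcium oscillations recorded by FLIPR once per second in Mg-free HBSS with 2 mM CaCl2, 20 mM HEPES, pH 7.4. Two acquisitions ("Acute", 500 sec, compound added at 250 sec; "20 min"), ± Kv7 blocker XE-991.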

The mark [2] stands for this setting: 20 min, AUC of fluorescence measured 20 min after compound addition, read-out: FLIPR: IC50 [nM] 20 min.
Where [3] appears, read: Acute phase, ratio of AUC fluorescence before and after compound addition, read-out: FLIPR: IC50 [nM] acute.

Read-outs that look alike come from different tables or passages of the source.

As to `O=C(NCc1cc(OCC(F)(F)F)ncn1)NC1CC2(CCC2)C1` [Example 59, 1-Spiro[3.3]hept-2-yl-3-[6-(2,2,2-trifluoro-ethoxy)-pyrimidin-4-ylmethyl]-urea], in the assay with DBA/2J mice (10 mg/kg po), the change in vivo at 10 mg/kg was -70%. Moreover, the IC50 (as a rule, the concentration at which inhibition is half-maximal) came to 61 nM in assay [1] (setting [2]) and 45 nM in assay [1] (setting [3]).
For the compound `O=C(NCc1cccc(C(F)(F)F)c1)NC1CC2(CC2)C1` [Example 2, 1-Spiro[2.3]hex-5-yl-3-(3-trifluoromethyl-benzyl)-urea], the change in vivo at 30 mg/kg in the assay on DBA/2J mice (30 mg/kg po) was -95%. Further, the IC50 in assay [1] (setting [2]) came to 86 nM; in assay [1] (setting [3]), 63 nM.
For the compound `O=C(NC1CC2(CC2)C1)N[C@@H](CO)c1cccc(C(F)(F)F)c1` (single isomer, unassigned) [Example 186], the change in vivo at 5 mg/kg with DBA/2J mice (5 mg/kg po) was -67%. Also, the values for the IC50 in assay [1] (setting [2]) and in assay [1] (setting [3]) were 40 nM and 20 nM, respectively.

The values are drawn from patent publication US20230136562A1, “SPIROUREA DERIVATIVES” (Idorsia Pharmaceuticals Ltd, priority 2020, published 2023).
